In US20260356957A1, “METHODS FOR TREATMENT OF NON-SMALL CELL LUNG CANCER (NSCLC)” (Janssen Biotech, Inc., priority 2023, published 2026):
Marks after values point to notes of the source that are not given here.

Experiment: MARIPOSA Phase 3, adverse events
Type: in vivo, human
Description: • 1. […] Incidence and Severity of Adverse Events (AEs) [Time Frame: Up to approximately 60 months]. Incidence and severity of treatment emergent adverse events (TEAEs) will be reported. Any adverse event occurring at or after the initial administration of study treatment through the day of last dose plus 30 days, or until the start of subsequent anticancer therapy (if earlier), is considered to be treatment emergent. • 8. Number of Participants with Clinical Laboratory Abnormalities [Time Frame: Up to approximately 60 months]. Number of participants with clinical laboratory abnormalities (serum chemistry, hematology, blood coagulation, and urine samples) will be reported. • 9. Number of Participants with Vital Signs Abnormalities [Time Frame: Up to approximately 60 months]. Number of participants with vital signs abnormalities (temperature, heart rate, respiratory rate, oxygen saturation, blood pressure) will be reported. • 10. Number of Participants with Physical Examination Abnormalities [Time Frame: Up to approximately 60 months]. Number of participants with physical examination abnormalities will be reported. • 11. […] The NSCLC-SAQ contains 7 items that assess cough, pain, dyspnea, fatigue, and poor appetite over a 7-day recall period. Each multi-item scale and individual item will be summarized using count and percent by visit. • 15. […] EORTC-QLQ-C30 is a core 30-item questionnaire for evaluating the health-related quality of life (HRQOL) of participants participating in cancer clinical studies. • 16.

[1] = AE of interest, grouped preferred terms
[2] = Grade 5 AE, deemed treatment-related
[3] = TEAE leading to discontinuations of any study agent
[4] = TEAE leading to dose reductions of any study agent

In the case of `C=CC(=O)Nc1cc(Nc2nccc(-c3cn(C)c4ccccc34)n2)c(OC)cc1N(C)CCN(C)C` [Osimertinib], the “Venous thromboembolism, No. of days to first onset, median (range)” value (AE of interest) is reported as 194 (10-675) days, the “Any venous thromboembolism event, No. of patients (%)” value [1] is reported as 39 (9) no. (%) and the “Rash, Duration of event, median no. of days (range)” value [1] is reported as 51 (1-625) days. For the same compound, the “Rash, No. of days to first onset, median (range)” value [1] was 29 (1-799) days, the “Rash, No. of events, any grade” value [1] was 238 and the “Rash, No. of patients (%)” value [1] was 210 (49) no. (%). The Anemia (AE, All grades) was 91 (21) no. (%), the Asthenia (AE, All grades) was 46 (11) no. (%) and the COVID-19 (AE, All grades) was 103 (24) no. (%). The Constipation (AE, All grades) was 55 (13) no. (%), the Cough (AE, All grades) was 88 (21) no. (%) and the Decreased appetite (AE, All grades) was 76 (18) no. (%). The Dermatitis acneiform (AE, All grades) was 55 (13) no. (%), the Diarrhea (AE, All grades) was 190 (44) no. (%) and the Dry skin (AE, All grades) was 60 (14) no. (%). The Dyspnea (AE, All grades) was 68 (16) no. (%), the Fatigue (AE, All grades) was 42 (10) no. (%) and the Hypoalbuminemia (AE, All grades) was 26 (6) no. (%). The Hypocalcemia (AE, All grades) was 35 (8) no. (%), the Increased alanine aminotransferase (AE, All grades) was 57 (13) no. (%) and the Increased aspartate aminotransferase (AE, All grades) was 58 (14) no. (%). For the same compound, the Infusion-related reaction (AE, All grades) was 0 no. (%), the Leukopenia (AE, All grades) was 66 (15) no. (%) and the Muscle spasms (AE, All grades) was 32 (7) no. (%). The Nausea (AE, All grades) was 58 (14) no. (%), the Pain in extremity (AE, All grades) was 22 (5) no. (%) and the Paronychia (AE, All grades) was 121 (28) no. (%). The Peripheral edema (AE, All grades) was 24 (6) no. (%), the Pruritus (AE, All grades) was 73 (17) no. (%) and the Pulmonary embolism (AE, All grades) was 20 (5) no. (%). The Rash (AE, All grades) was 131 (31) no. (%), the Stomatitis (AE, All grades) was 90 (21) no. (%) and the Thrombocytopenia (AE, All grades) was 84 (20) no. (%). The Anemia (AE, Grade ≥3) was 7 (2) no. (%), the Asthenia (AE, Grade ≥3) was 4 (1) no. (%) and the COVID-19 (AE, Grade ≥3) was 9 (2) no. (%). The Constipation (AE, Grade ≥3) was 0 no. (%), the Cough (AE, Grade ≥3) was 0 no. (%) and the Decreased appetite (AE, Grade ≥3) was 6 (1) no. (%). The Dermatitis acneiform (AE, Grade ≥3) was 0 no. (%), the Diarrhea (AE, Grade ≥3) was 3 (1) no. (%) and the Dry skin (AE, Grade ≥3) was 1 (0.2) no. (%). For the same compound, the Dyspnea (AE, Grade ≥3) was 17 (4) no. (%), the Fatigue (AE, Grade ≥3) was 4 (1) no. (%) and the Hypoalbuminemia (AE, Grade ≥3) was 0 no. (%). For the same compound, the Hypocalcemia (AE, Grade ≥3) was 0 no. (%), the Increased alanine aminotransferase (AE, Grade ≥3) was 8 (2) no. (%) and the Increased aspartate aminotransferase (AE, Grade ≥3) was 5 (1) no. (%). For the same compound, the Infusion-related reaction (AE, Grade ≥3) was 0 no. (%), the Leukopenia (AE, Grade ≥3) was 0 no. (%) and the Muscle spasms (AE, Grade ≥3) was 0 no. (%). For the same compound, the Nausea (AE, Grade ≥3) was 1 (0.2) no. (%), the Pain in extremity (AE, Grade ≥3) was 0 no. (%) and the Paronychia (AE, Grade ≥3) was 2 (0.5) no. (%). The Peripheral edema (AE, Grade ≥3) was 0 no. (%), the Pruritus (AE, Grade ≥3) was 1 (0.2) no. (%) and the Pulmonary embolism (AE, Grade ≥3) was 10 (2) no. (%). The Rash (AE, Grade ≥3) was 3 (1) no. (%), the Stomatitis (AE, Grade ≥3) was 1 (0.2) no. (%) and the Thrombocytopenia (AE, Grade ≥3) was 5 (1) no. (%). The Acinetobacter sepsis (Grade 5 AE) was 0 no. (%), the “Acute respiratory distress syndrome” value (Grade 5 AE) was 0 no. (%) and the Arteriosclerosis coronary artery (Grade 5 AE) was 0 no. (%). The COVID-19 (Grade 5 AE) was 3 (1) no. (%), the COVID-19 pneumonia (Grade 5 AE) was 0 no. (%) and the Cardiac failure (Grade 5 AE) was 1 (0.2) no. (%). The Cardiopulmonary failure (Grade 5 AE) was 0 no. (%), the Cerebral hemorrhage (Grade 5 AE) was 1 (0.2) no. (%) and the Cerebral infarction (Grade 5 AE) was 0 no. (%). The Cerebrovascular accident (Grade 5 AE) was 1 (0.2) no. (%), the Circulatory collapse (Grade 5 AE) was 0 no. (%) and the Death (Grade 5 AE) was 2 (0.5) no. (%). For the same compound, the Dyspnea (Grade 5 AE) was 3 (1) no. (%), the Hemoptysis (Grade 5 AE) was 1 (0.2) no. (%) and the Ischemic cerebral infarction (Grade 5 AE) was 0 no. (%). The Ketoacidosis (Grade 5 AE) was 1 (0.2) no. (%), the “Lower respiratory tract infection” value (Grade 5 AE) was 1 (0.2) no. (%) and the Metabolic acidosis (Grade 5 AE) was 1 (0.2) no. (%). The Myocardial infarction (Grade 5 AE) was 0 no. (%), the Myocardial rupture (Grade 5 AE) was 0 no. (%) and the Pericardial effusion (Grade 5 AE) was 1 (0.2) no. (%). The Pleural effusion (Grade 5 AE) was 1 (0.2) no. (%), the Pneumonia (Grade 5 AE) was 4 (1) no. (%) and the Pneumonia aspiration (Grade 5 AE) was 1 (0.2) no. (%). For the same compound, the Pulmonary embolism (Grade 5 AE) was 2 (0.5) no. (%), the Respiratory failure (Grade 5 AE) was 2 (0.5) no. (%) and the Respiratory tract infection (Grade 5 AE) was 1 (0.2) no. (%). For the same compound, the Sepsis (Grade 5 AE) was 1 (0.2) no. (%), the Septic shock (Grade 5 AE) was 1 (0.2) no. (%) and the Sudden death (Grade 5 AE) was 1 (0.2) no. (%). The Urosepsis (Grade 5 AE) was 0 no. (%), the Coronary artery disease [2] was 0 no. (%) and the Interstitial lung disease [2] was 2 (0.5)§ no. (%). For the same compound, the Pneumonitis [2] was 0 no. (%), the Asthenia [3] was 1 (0.2) no. (%) and the Dermatitis acneiform [3] was 0 no. (%). The Hypoalbuminemia [3] was 0 no. (%), the Infusion related reaction [3] was 0 no. (%) and the Interstitial lung disease [3] was 4 (1) no. (%). The Paronychia [3] was 0 no. (%), the Peripheral edema [3] was 0 no. (%) and the Pneumonia [3] was 3 (1) no. (%). The Pneumonitis [3] was 7 (2) no. (%), the Pulmonary embolism [3] was 2 (0.5) no. (%) and the Rash [3] was 0 no. (%). The Dermatitis acneiform [4] was 0 no. (%), the Folliculitis [4] was 0 no. (%) and the Hypoalbuminemia [4] was 0 no. (%). For the same compound, the Increased alanine aminotransferase [4] was 0 no. (%), the Increased aspartate aminotransferase [4] was 0 no. (%) and the Mucosal inflammation [4] was 0 no. (%). The Neuropathy peripheral [4] was 0 no. (%), the Paresthesia [4] was 0 no. (%) and the Paronychia [4] was 1 (0.2) no. (%). For the same compound, the Peripheral edema [4] was 0 no. (%), the Peripheral sensory neuropathy [4] was 0 no. (%) and the Rash [4] was 2 (0.5) no. (%). For the same compound, the Rash maculo-papular [4] was 0 no. (%) and the Rash pustular [4] was 0 no. (%).
